Assay results published in ChEMBL document CHEMBL3621061 (J Med Chem, 2015).
Each block holds one molecule with its values, some of them ahead of it.

Key:
[1] = Displacement of [3H]histamine from monkey histamine H4 receptor expressed in HEK293T cells; assay type: cell-based, Macaca mulatta; settings: hek-293t
[2] = Displacement of [3H]histamine from dog histamine H4 receptor expressed in HEK293T cells; assay type: cell-based, Canis lupus familiaris; settings: hek-293t
Histamine H4 receptor = target: T1, Histamine H4 receptor (Cavia porcellus, UniProt Q91ZY3)
T1 sequence (Q91ZY3 whole entry): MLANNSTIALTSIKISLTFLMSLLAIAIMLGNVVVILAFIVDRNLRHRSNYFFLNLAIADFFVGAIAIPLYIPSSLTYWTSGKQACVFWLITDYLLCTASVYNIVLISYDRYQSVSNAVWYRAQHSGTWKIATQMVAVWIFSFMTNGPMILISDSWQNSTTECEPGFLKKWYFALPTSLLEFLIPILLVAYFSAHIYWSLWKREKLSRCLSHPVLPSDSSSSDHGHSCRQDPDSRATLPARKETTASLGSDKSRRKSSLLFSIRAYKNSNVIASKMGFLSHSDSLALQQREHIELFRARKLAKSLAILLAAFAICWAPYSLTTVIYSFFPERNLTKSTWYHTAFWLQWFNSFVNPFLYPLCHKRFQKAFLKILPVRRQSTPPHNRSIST

[3] = Displacement of [3H]histamine from dog recombinant histamine H4 receptor; set-up: species or system Canis lupus familiaris
[4] = Displacement of [3H]histamine from monkey recombinant histamine H4 receptor; set-up: species or system Macaca mulatta

Structure (SMILES): CN[C@@H]1CCN(c2cc(NCC3CC3)nc(N)n2)C1 [ADRIFORANT]
pKi [1]: 7.81
pKi [2]: 5.79

Ki (Histamine H4 receptor): 0.006 µM
Structure (SMILES): NCCc1c[nH]cn1 [HISTAMINE]

Ki [3]: > 10 µM
Ki [4]: 0.025 µM
Structure (SMILES): CC(C)c1cc(N2CC[C@@H](N)C2)nc(N)n1 [JNJ-39758979]
